The results in this text go back to ChEMBL document CHEMBL1201862, “PubChem BioAssay data set” (2004).

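Results reflect a 48-hour exposure of cells in 96-well plates to compound at five concentrations. GI50 = concentration required for 50% inhibition of growth.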 Active and inactive are the calls of the source. Rule as the data show it: active = GI50 up to about 1.1 µM and inactive = higher.

Some test systems named below: 786-0; CAKI-1; CCRF-CEM; COLO 205; DU-145; HCT-15; Hs-578T; IGROV-1; MCF7; MDA-MB-435; MOLT-4; NCI-H23; NCI/ADR-RES; OVCAR-8; SK-MEL-28; SK-MEL-2; SN12C; SNB-19; SNB-75; SW-620.
What all share (test): NCI tumour cell line growth inhibition, 48 h

Regarding `COc1ccc(C(C)NNC(=O)c2ccncc2)c(OC)c1` (stereo not given), the GI50 in the test on 786-0 is > 100 µM (inactive); in the test with CAKI-1, > 100 µM (inactive); in the test with CCRF-CEM it was > 100 µM (inactive); in the test on COLO 205 it was > 100 µM (inactive); in the test on DU-145, > 100 µM (inactive); in the test on HCT-15 it was above 100 µM. The GI50 in the test with Hs-578T, in the test on IGROV-1, in the test with MCF7, in the test with MDA-MB-435, with MOLT-4 and in the test with NCI-H23 was > 100 µM (inactive) each time. Besides, the GI50 with NCI/ADR-RES, in the test with OVCAR-8, with SK-MEL-28, in the test with SK-MEL-2, in the test on SN12C and with SNB-19 was > 100 µM (inactive) throughout. The GI50 in the test on SNB-75 and in the test on SW-620 was > 100 µM (inactive) throughout.

Regarding `CC(=O)OCC1OC(O[C@@H]2C[C@H]3C(C)(C)[C@H](OC(C)=O)CC[C@]3(C)[C@H]3CC[C@@]45C[C@H](O)C[C@H](C)[C@@H]4CC=C5[C@@]32C)C(O)C(O)C1O` (stereo not given in full), the GI50 in the test with 786-0 was 3.83 µM (inactive); in the test with CAKI-1, 11.6 µM (inactive); in the test on CCRF-CEM, 2.81 µM (inactive); in the test on COLO 205, 1.82 µM (inactive); in the test with DU-145, 8.28 µM (inactive); in the test on HCT-15, 11.2 µM. The GI50 is 4.6 µM (inactive) in the test with Hs-578T; 2.71 µM (inactive) in the test with IGROV-1; 4.04 µM (inactive) in the test with MCF7; 3.27 µM (inactive) with MDA-MB-435; 2.32 µM (inactive) with MOLT-4; 4.56 µM (inactive) in the test with NCI-H23. Moreover, the GI50 was 16 µM (inactive) with NCI/ADR-RES; 4.83 µM (inactive) in the test with OVCAR-8; 7.19 µM (inactive) in the test on SK-MEL-28; 2.33 µM (inactive) in the test with SK-MEL-2; 4.08 µM (inactive) in the test with SN12C; 4.02 µM (inactive) in the test on SNB-19. In addition, the figures for the GI50 in the test with SNB-75 and in the test on SW-620 were 3.16 µM (inactive) and 4.18 µM (inactive), respectively.

On to `CC(=O)Nc1cc(C(=O)Nc2cc(C(=O)Nc3cc(C(=O)Nc4cc(C(=O)Nc5cc(C(=O)NCCC(=O)NCCCN(C)C)n(C)c5)n(C)c4)n(C)c3)n(C)c2)n(C)c1`, for which the GI50 is 63.7 µM (inactive) in the test on 786-0; 19.5 µM (inactive) in the test with CAKI-1; 27.8 µM (inactive) in the test on CCRF-CEM; 46.8 µM (inactive) in the test with COLO 205; > 100 µM (inactive) with DU-145; above 100 µM in the test with HCT-15. Further, the GI50 in the test on Hs-578T is 34.2 µM (inactive); in the test with IGROV-1, > 100 µM (inactive); in the test on MCF7, 28.2 µM (inactive); in the test with MDA-MB-435, 36.8 µM (inactive); in the test with MOLT-4, 38.9 µM (inactive); in the test on NCI-H23, > 100 µM (inactive). The GI50 is > 100 µM (inactive) in the test on NCI/ADR-RES; > 100 µM (inactive) in the test on OVCAR-8; 67.6 µM (inactive) in the test with SK-MEL-28; > 100 µM (inactive) in the test on SK-MEL-2; > 100 µM (inactive) in the test with SN12C; > 100 µM (inactive) in the test with SNB-19. Besides, the GI50 was > 100 µM (inactive) in the test with SNB-75 and 69.5 µM (inactive) in the test on SW-620.

As to `COc1ccc(C(SCC(N)C(=O)O)(c2ccc(OC)cc2)c2ccc(OC)cc2)cc1` (stereo not given), the GI50 with 786-0 was 13.4 µM (inactive); with CAKI-1, 17.3 µM (inactive); with CCRF-CEM it was 13.7 µM (inactive); with COLO 205, 12.4 µM (inactive); in the test with DU-145, > 10 µM (inactive); in the test with HCT-15 it was 11.6 µM. For the same compound, the GI50 is 12.2 µM (inactive) with Hs-578T; 13.3 µM (inactive) in the test with IGROV-1; 8.63 µM (inactive) with MCF7; 2.97 µM (inactive) in the test with MDA-MB-435; 12.6 µM (inactive) in the test on MOLT-4; 12.4 µM (inactive) with NCI-H23. Moreover, the GI50 in the test on NCI/ADR-RES was 10.6 µM (inactive); in the test with OVCAR-8, 12.4 µM (inactive); with SK-MEL-28, 11.8 µM (inactive); in the test on SK-MEL-2 it was 12 µM (inactive); with SN12C, 12.7 µM (inactive); in the test with SNB-19, 14.1 µM (inactive). Besides, the GI50 was 11.3 µM (inactive) in the test with SNB-75 and > 10 µM (inactive) with SW-620.

Turning to `C[n+]1cccc2ccc3cccnc3c21`, the GI50 with 786-0 was 63.5 µM (inactive); in the test on CAKI-1 it was > 100 µM (inactive); with CCRF-CEM, > 100 µM (inactive); in the test on COLO 205, 17.7 µM (inactive); in the test with DU-145, 49.9 µM (inactive); in the test with HCT-15 it was 61.8 µM. Further, the GI50 in the test with Hs-578T is 12.7 µM (inactive); in the test on IGROV-1 it was 76 µM (inactive); in the test with MCF7, 38.5 µM (inactive); in the test with MDA-MB-435, 69.2 µM (inactive); in the test with MOLT-4 it was > 100 µM (inactive); in the test on NCI-H23 it was 18.2 µM (inactive). The GI50 in the test on NCI/ADR-RES was > 100 µM (inactive); in the test with OVCAR-8 it was 12.3 µM (inactive); in the test with SK-MEL-28 it was 55.7 µM (inactive); in the test on SK-MEL-2, 19.3 µM (inactive); in the test on SN12C it was 35.1 µM (inactive); with SNB-19 it was 30.8 µM (inactive). In addition, the values for the GI50 in the test on SNB-75 and with SW-620 were 23.6 µM (inactive) and 32.4 µM (inactive), respectively.

On to `CC1(C)O[C@@H](CBr)C[C@H](C[C@H]2C[C@@H](O)C[C@@H](CCOCc3ccccc3)O2)O1`, for which the GI50 with 786-0 is 19.4 µM (inactive); in the test on CAKI-1 it was 27.8 µM (inactive); with CCRF-CEM it was 47.3 µM (inactive); with COLO 205 it was 17 µM (inactive); with DU-145, 25.4 µM (inactive); in the test on HCT-15, 24.2 µM. The GI50 with Hs-578T is 25.6 µM (inactive); in the test on IGROV-1 it was 19.8 µM (inactive); with MCF7 it was 20 µM (inactive); in the test on MDA-MB-435, 23.5 µM (inactive); with MOLT-4, 47.1 µM (inactive); in the test with NCI-H23, 16.3 µM (inactive). The GI50 in the test with NCI/ADR-RES is 18.7 µM (inactive); in the test with OVCAR-8, 21.5 µM (inactive); in the test on SK-MEL-28 it was 25.2 µM (inactive); in the test with SK-MEL-2, 16.4 µM (inactive); with SN12C, 30.4 µM (inactive); in the test on SNB-19, 25.5 µM (inactive). The results for the GI50 in the test with SNB-75 and in the test with SW-620 were 20.5 µM (inactive) and 31.6 µM (inactive), respectively.

Take `CC1=NN(C(=O)CC(=O)Nc2cccc(C)c2)C(=O)C1/N=N\c1ccc(S(=O)(=O)c2ccc(/N=N/C3C(=O)N(C(=O)CC(=O)Nc4cccc(C)c4)N=C3C)cc2)cc1` (stereo not given): the GI50 in the test with 786-0 was > 100 µM (inactive); in the test with CAKI-1, > 100 µM (inactive); in the test on CCRF-CEM, > 100 µM (inactive); with COLO 205 it was > 100 µM (inactive); in the test with DU-145 it was > 100 µM (inactive); with HCT-15 it was above 100 µM. Also, the GI50 with Hs-578T, in the test on IGROV-1, in the test with MCF7, in the test on MDA-MB-435, in the test on MOLT-4 and in the test with NCI-H23 was > 100 µM (inactive) throughout. Further, the GI50 with NCI/ADR-RES, with OVCAR-8, with SK-MEL-28, in the test on SK-MEL-2, in the test on SN12C and with SNB-19 was > 100 µM (inactive) each time. Besides, the GI50 in the test with SNB-75 and with SW-620 was > 100 µM (inactive) each time.
